Results on 4 molecules are retold here after US20180008542A1, “PHARMACEUTICAL COMPOSITION” (priority 2003, published 2018).

Series [1] in a line: Laser diffraction particle size analysis (Mastersizer 2000). Type of series: physicochemical. As to conditions: continuous flow precipitator, into isopropanol; coated samples 10% protein loading.
Experimental: Laser diffraction particle size analysis was carried out on bioactive coated particles using a Mastersizer 2000. Briefly, enough PCMC was added to the sample holder of the Mastersizer 2000 containing 60 ml of 2-propanol to ensure a laser obscuration of between 10 and 20%. Measurements were then taken using a previously set up Standard Operating Procedure. d(0.1)(μm)=10% of the particles are below this particle size d(0.5)(μm)=50% of the particles are above and below this particle size d(0.9)(μm)=90% of the particles are below this particle size. Span=d(0.9)−d(0.1)/d(0.5)
Span gives a good indication of population homogeneity.
Series [2] in a line: Zeta potential (Malvern Zetasizer, suspension in acetonitrile). Type of series: physicochemical. The following applies: for Zeta potential (sign): dilute suspension in acetonitrile; for Zeta potential (mV): microcrystals in non-aqueous medium, precipitation pH 5.59-7.02 as given per sample. The source says:
The core microcrystal and protein coating that are characteristic of protein coated coated microcrystals arise from a single continuous self-assembly process. In order to assess whether electrostatic binding of the bioactive molecule to pre-formed microcrystals might be important in the mechanism of this process it was of interest to measure the surface potential of the microcrystals in a non-aqueous medium. The liquid layer surrounding a charged particle exists as two parts; an inner region (Stern layer) where the ions are strongly bound and an outer (diffuse) region where they are less firmly associated. Within the diffuse layer there is a notional boundary inside which the ions and particles form a stable entity. When a particle moves (e.g. due to gravity), ions within the boundary move too. […] The potential at this boundary (surface of hydrodynamic shear) is the zeta potential. The sign and magnitude of the zeta potential depends on the surface charge of the particle with for example a negative zeta potential indicating a particle with an overall negative charge. A Malvern Zetasizer that employs laser Doppler velocimetry was used to measure the sign and approximate magnitude of the Zeta potential of microcrystals produced by precipitation of various core materials at fixed pH. The measurements were made on pre-prepared microcrystals or protein coated microcrystals suspended as dilute suspension in acetonitrile. A polystyrene latex was used to calibrate the machine. […] If electrostatic binding is important to the mechanism of formation it would be expected that only biomolecules with an overall positive charge would be expected to form a coating on these negatively charged materials. The charge on a protein is a function of pH. It will be negative at pH values above the pI and positive at a pH below the pI.

The test system of series [3] is resistance arteries. In words: Ex-vivo insulin bioactivity, wire myograph. Type of series: cell-based, Wistar rats. The following applies: pre-constriction with thromboxane mimetic [U44169]. The procedure: A pressure myograph which allowed luminal application of drug provided initial measures of sensitivity. In the pressure system, arteries mounted on opposing glass cannula (outer dimension 80 μm) were gradually pressurized from <5 mmHg to 40 mmHg over 15 mins and held for 15 mins more before starting the assay. Responses were measured using proprietary video analysis software (MyoView). […] The arteries were then exposed to increasing concentrations of insulin either directly into the bath (wire) or by gradual infusion directly into the lumen via a fetal microcannulae inserted to the tip of the glass mounting cannula, at a constant pressure (pressure). Following pre-constriction with thromboxane mimetic [U44169] the insulin-mediated vasorelaxation profile is typical for insulin and exerts its effect mainly via the activation of nitric oxide synthase and the subsequent release of endothelial nitric oxide.

The conditions of series [4]: above 80% RH.
Experimental: The uptake of water by bioactive molecule coated particles produced by the present co-precipitation process and of the core material precipitated alone under a controlled humidified environment was carried out by Dynamic Vapor Sorption (DVS) using Dynamic Vapor Sorption 1000 (Surface Measurement Systems).
The Experimental set-up was as follows.
The DVS used a 2 full-cycle experimental Special Automatic Operation (SAO) protocol that included an initial drying stage at 0% Relative Humidity (RH). […] This was proceeded by an identical desorption cycle down to 0% RH. This cycle was repeated. The following criteria was used to control the DVS stage change: either the rate of change of the increase in mass i.e. dm/dt dropped to 0.002, or the maximum stage time was 2000 minutes.
Prior to introduction of the sample, the balance was tared and the instrument was allowed to equilibrate until a stable baseline was observed. The particles were then loaded and the initial weight recorded, followed by switching on the SAO. The experiment ran until the completion of the SAO.
Series [5] is described as follows: HPLC analysis of insulin after reconstitution. The following applies: retained in the same aqueous solution used for co-precipitation.
In series [6] the test system is resistance arteries. In words: Ex-vivo insulin bioactivity, pressure myograph. As to conditions: mean of 3 (SD). Type of series: cell-based, Wistar rats. The procedure: Insulin bioactivity assays were carried out on resistance arteries ([…]) isolated from 12 week old male Wistar rats studied in heated (37° C.) and gassed (95% O2/5% CO2) physiological salt solution (PSS) to achieve a pH of 7.4. A pressure myograph which allowed luminal application of drug provided initial measures of sensitivity. In the pressure system, arteries mounted on opposing glass cannula (outer dimension 80 μm) were gradually pressurized from <5 mmHg to 40 mmHg over 15 mins and held for 15 mins more before starting the assay. Responses were measured using proprietary video analysis software (MyoView). The pressure myograph is able to detect the vasodilatory effect of insulin at very low concentrations (1×10^−10 M).

Turning to `CC(C)C(N)C(=O)O` (racemic) [D,L-valine], in series [1], the Span was 1.32 and the “d(0.5)/microns” value is on record as 21.810 microns. In series [2], the “Zeta potential (sign)” value is “negative” and the “Zeta potential (mV)” value is −19.6 mV. In addition, the insulin mediated vasorelaxation result in series [3] is listed as “no bioactivity”.

On to `NCC(=O)O` [Glycine, glycine], for which, in series [1], the Span worked out at 1.72 and the “d(0.5)/microns” value is listed as 58.370 microns. Moreover, in series [2], the “Zeta potential (sign)” value is “negative” and the “Zeta potential (mV)” value is on record as −49.7 mV. In series [4], the water uptake entry is reported as “start to take up appreciable amounts of water”.

Regarding `NC(=O)CC[C@H](N)C(=O)O` [L-glutamine], in series [1], the Span worked out at 1.88 and the “d(0.5)/microns” value stood at 36.373 microns. Besides, in series [2], the “Zeta potential (sign)” value is recorded as “negative” and the “Zeta potential (mV)” value is −54.8 mV.

On to “Commercial Insulin: USP bovine pancreas insulin control”, for which, in series [5], the “time to significant changes” value is listed as “less than 30 minutes”. Also, the “insulin mediated relaxation to noradrenaline pre-constriction (100=100% constriction)” value in series [6] (Log M −9) is reported as 65 (23) %; in series [6] (Log M −10), 84 (7) %; in series [6] (Log M −11) it was 100 (0) %.
